Experimental data as given in patent US12226410B2, “Methods for enhancing cellular clearance of pathological molecules via activation of the cellular protein ykt6” (NORTHWESTERN UNIVERSITY, priority 2019, dated 2025).

How the values were obtained:
[1] = Pharmacokinetic studies of the FTI; format: in vivo, mice; conditions: single oral dose; data not shown
Source text: Farnesyltransferase inhibition activates ykt6 in vivo and reduces pathological aggregation in mice. We next sought to determine if FTIs could activate ykt6 in the brains of mice by first testing their effect in wild-type animals.

lysosomal GCase = test: Live cell GCase activity assay in A53T iPSn; format: cell-based, human
Experimental: FIGS. 6A, 6B, 6C, 6D, 6E, 6F, and 6G. FTIs enhance lysosomal GCase activity and reduce pathological a-syn by blocking ykt6 farnesylation. 6A) GCase activity in FTI-treated A53T iPSn at d80 (LNK-754 5 nM, 5d). 6B) GCase activity in FTI-treated A53T iPSn expressing empty vector (vect) or ykt6-CS (n=4). 6C) Lysosomal GCase activity was assessed in FTI-treated SHSY5Y cells transfected with scrambled or ykt6 shRNA (KD) (n=3). 6D) Quantification of Triton X-100 soluble (T-sol) a-syn by western blot from FTI-treated A53T iPSn (5 nM, 7d). *, non-specific band. (n=3). 6E) Quantification of insoluble a-syn from A53T iPSn as in D (n=3). 6F) Insoluble a-syn in FTI-treated H4 cells (5 nM, 5 days) transfected with either scrambled or ykt6 shRNA (n=6). 6G) Neuron viability was assessed in FTI-treated A53T iPSn (5 nM, 14d from d86-d100) by quantification of neurofilament protein. Right, neuron viability in FTI-treated A53T iPSn expressing empty vector or ykt6-CS (n=4). Values are the mean+/−SEM, *p<0.05, **p<0.01, ***p<0.001.
Live cell GCase activity assay. […] Fluorescent signal was quantified over time and normalized to total cell volume using CellTag 700 (Licor) or lysosomal mass by using cascade dextran blue (#D-1976, Thermofisher). […]
Treatment of cultures with farnesyltransferase inhibitors. […] Cultures were harvested and analyzed as described in the above sections.

a-syn = test: FTI treatment of wild-type mice: a-syn levels in cortex; format: in vivo; conditions: daily i.p. 0.9 mg/kg, 14 days
Experimental: FIGS. 15A, 15B, 15C, 15D, 15E, and 15F. FTI treatment of wild-type mice enhances ykt6 SNARE complexes, lysosomal activity, and reduces a-syn. 15A) Wild-type mice (C57Bl/6) were i.p. injected daily with FTI for 14 days at 0.9 mg/kg and compared to vehicle injected mice. Extracts from the cortex were analyzed for cytosolic (cyt) and membrane (mem) distribution of ykt6 (veh, n=5; FTI, n=6). 15B) Representative gel filtration/western blot analysis of cortical extracts of veh or FTI injected wild-type mice. Inputs are shown on the left. NSE indicates equal column loading. 15C) Quantification of ykt6 and STX5 complexes (ca. 120A) from gel filtration analysis in C (n=4 mice). Fraction 1 corresponds to complexes at 120A, while fractions 7-9 correspond to ykt6 monomers at 22-14 A. 15D) The levels of post ER (endo H resistant) GCase were analyzed by western blot and post ER/ER ratios were quantified from the cortex of FTI treated mice (veh, n=5; FTI, n=6). 15E) GCase activity was assessed in cortical lysates and normalized to total protein (veh, n=4; FTI, n=6). 15F) a-Syn levels were quantified from cytosolic or membrane isolated fractions from the cortex of wild-type FTI treated mice (veh, n=4; FTI, n=6). For all quantifications, values are the mean+/−SEM, *p<0.05.
Treatment of C57Bl/6 and DASYN53 mice with farnesyltransferase inhibitors. […]

C#Cc1cccc(-c2cc(=O)n(C)c3ccc([C@](O)(c4ccc(Cl)cc4)c4cncn4C)cc23)c1 [LNK-754]
blood-brain-barrier crossing [1]: could rapidly cross the blood-brain-barrier | time to clearance from plasma [1]: ≤ 20 h | lysosomal GCase activity (lysosomal GCase; 1 nM): partially rescued | lysosomal GCase activity (lysosomal GCase; 4 and 10 nM): near-complete rescue | a-syn levels (a-syn): reduced a-syn levels
